Measured values as given in PubChem BioAssay (NCI).
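Test compounds were applied to cells in 96-well plates for 48 hours at 5 doses. TGI: total growth inhibition.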

Legend:
Test in all cases: growth of human tumour cells (NCI), 48 h
NCI-H522 lung = tested on: NCI-H522 lung
MCF7 breast = tested on: MCF7 breast
CCRF-CEM leukemia = tested on: CCRF-CEM leukemia
RXF 393 renal = tested on: RXF 393 renal
NCI/ADR-RES ovarian = tested on: NCI/ADR-RES ovarian
A498 renal = tested on: A498 renal
HS 578T breast = tested on: HS 578T breast
HCT-15 colon = tested on: HCT-15 colon
MOLT-4 leukemia = tested on: MOLT-4 leukemia
MDA-MB-231 breast = tested on: MDA-MB-231 breast
K-562 leukemia = tested on: K-562 leukemia
SK-OV-3 ovarian = tested on: SK-OV-3 ovarian
TK-10 renal = tested on: TK-10 renal
SNB-75 CNS = tested on: SNB-75 CNS
IGROV1 ovarian = tested on: IGROV1 ovarian
PC-3 prostate = tested on: PC-3 prostate
UACC-62 melanoma = tested on: UACC-62 melanoma
SNB-19 CNS = tested on: SNB-19 CNS
EKVX NSCLC = tested on: EKVX NSCLC

Compound | TGI (NCI-H522 lung) [µM] | TGI (MCF7 breast) [µM] | TGI (CCRF-CEM leukemia) [µM] | TGI (RXF 393 renal) [µM] | TGI (NCI/ADR-RES ovarian) [µM] | TGI (A498 renal) [µM] | TGI (HS 578T breast) [µM] | TGI (HCT-15 colon) [µM] | TGI (MOLT-4 leukemia) [µM] | TGI (MDA-MB-231 breast) [µM] | TGI (K-562 leukemia) [µM] | TGI (SK-OV-3 ovarian) [µM] | TGI (TK-10 renal) [µM] | TGI (SNB-75 CNS) [µM] | TGI (IGROV1 ovarian) [µM] | TGI (PC-3 prostate) [µM] | TGI (UACC-62 melanoma) [µM] | TGI (SNB-19 CNS) [µM] | TGI (EKVX NSCLC) [µM]
Cn1ccnc1SC(F)(F)c1nc2ccccc2o1 | > 100 | > 100 | > 100 | > 100 | > 100 | > 100 | > 100 | > 100 | > 100 | > 100 | > 100 | > 100 | > 100 | > 100 | > 100 | > 100 | > 100 |  | 
Cc1cc(C)c2c(=O)n(CN3CCN(c4ccccc4)CC3)sc2n1 | 32.5 | > 100 | > 100 | 25.7 | 52.7 | > 100 | > 100 | 50.7 | 58.7 | 39.5 | > 100 | > 100 | > 100 | 42.7 | > 100 | 40.5 | > 100 | > 100 | 70.1
COC(OC)C1(c2ccccc2)Oc2ccccc2C1=O (stereo not drawn) | > 100 | > 100 | > 100 | > 100 | > 100 | > 100 | > 100 | > 100 | > 100 | > 100 | > 100 | > 100 | > 100 | > 100 | > 100 | > 100 | > 100 | > 100 | > 100
Cc1cc(C)nc(NC(=S)Nc2cccc(Cl)c2)c1 |  | > 58.3 | > 100 | > 100 | > 100 | > 100 | > 100 | > 100 | > 100 | > 100 | > 100 | > 100 | > 100 | > 100 | > 100 | > 100 | > 100 | > 100 | > 100
Nc1nc(N)nc(-c2cnc3ccccc3c2)n1 | > 100 | > 100 | 65.9 | > 100 | > 100 | > 100 | > 100 | > 100 | > 100 | > 100 | > 100 | > 100 | > 100 | > 100 | > 100 | > 100 | > 100 | > 100 | > 100
COc1ccc(-c2cn3c(nc4ccccc43)c(C)n2)cc1 | > 100 | > 100 | > 100 | > 88.9 | > 100 | > 100 | > 100 | > 100 | > 100 | > 100 | > 100 | 39.2 | > 100 | > 86.1 | > 100 | > 100 | > 91.5 | > 100 | > 100
O=c1oc2ccccc2c(-c2ccc(O)cc2)c1Oc1ccc(Cl)cc1 | 43.7 | 72.3 | 52.9 | 57.8 | 82.3 | 77.2 | > 100 | > 100 |  | 90.6 | 72.1 |  | 62.1 | 85.7 | 60.8 | 97.1 | 63.3 | 67 | 68.7
CCC(C#N)N(Cc1ccc(CN(C(=O)c2ccccc2)C(C#N)CC)cc1)C(=O)c1ccccc1 (stereo not drawn) | > 100 | 93.6 | 51.1 | > 100 | > 100 | 65 | > 100 | > 100 | 65 | 85.2 | > 100 | > 100 | 74.4 | 68.8 | 61.8 | > 100 | 60.1 | > 100 | 93.3
COc1cccc(N=N/C(=N/NC(=O)c2cc(Cl)ccc2O)c2ccc(N(CCC#N)CCC#N)cc2C)c1 | 31.9 | 79.1 | > 100 | > 100 | > 100 | > 100 | > 100 | > 100 | 89.6 | > 100 | > 100 | > 100 | > 100 | > 100 | > 100 | > 100 | > 100 | > 100 | > 100
CN(C)c1ccc(/C=C2\C[C@H]3[C@@H]4CCC5=CC(=O)CC[C@]5(C)[C@H]4CC[C@]3(C)C2=O)cc1 |  | > 100 |  | > 100 | > 100 | > 100 | > 100 | > 100 | > 100 | > 100 | > 100 | > 100 | > 100 | > 100 | > 100 | 66.8 | > 100 | > 100 | > 100
CCOP(=O)(OCC)/C(=C/c1ccccc1)CC(C)=O |  | > 100 | > 100 | > 100 | > 100 | > 100 | > 100 | > 100 | > 100 | > 100 | > 100 | > 100 | > 100 | > 100 | > 100 | > 100 | > 100 | > 100 | > 100
COc1cc(O)c2c(=O)c3ccccc3n(C)c2c1 | > 100 | > 100 | > 100 | 51.4 | > 100 | > 100 | 59.2 | > 100 | > 100 | > 100 | > 100 | > 100 | > 100 |  | > 100 | > 100 | > 100 |  | > 100
COc1cc(/C=C2/C[C@H]3[C@@H]4CCC5=CC(=O)CC[C@]5(C)[C@H]4CC[C@]3(C)NC2=O)cc(OC)c1OC | 34 | 88.9 | 64.4 | 46.7 | > 100 | 41.6 | 73.9 | > 100 | > 100 | 83.2 |  | > 100 | 56.2 | > 100 | 94.7 | > 100 | > 100 | > 100 | > 100
O=C(COC(c1ccc(F)cc1)c1ccc(F)cc1)N1CCN(CCCc2ccccc2)CC1 | 18.6 | 12.6 | > 100 | 8.1 | 12.8 | 12.6 | 59.6 | 11.4 | > 100 | 11.3 | > 100 | 21.5 | 17.8 |  | 19 | 11.9 | 16.5 | 15.2 | 17.3
Cn1c2c(c3c(=O)[nH]ncc31)CCc1ccccc1-2 | > 100 | 79 | 60.7 | 39.6 | 89 | 45.7 | > 100 | 67.3 | 75 | 47.3 | > 100 | > 100 | 45.3 | 87.8 | 60.2 | > 100 |  | > 100 | > 100
CCOC(=O)CCC(NC(=O)N1CCN(c2c(C)nc(C)[nH]c2=O)CC1)C(=O)OCC (stereo not drawn) | > 100 | > 100 | > 100 | > 100 | > 100 | > 100 | > 100 | > 100 | > 100 | > 100 | > 100 | > 100 | > 100 |  | > 100 | > 100 | > 100 | > 100 | > 100
C/C(=C/CNc1ncnc2c1ncn2CCC(=O)O)CO | > 100 | > 100 | > 100 | > 100 | > 100 | > 100 | > 100 |  | > 100 | > 100 | > 100 | > 100 | > 100 | > 100 | > 100 | > 100 | > 100 | > 100 | > 100
COc1ccc2cc(-c3ccc(OC)c(OC)c3)c(=O)oc2c1 | > 100 | > 100 | > 100 | 68.3 | > 100 | > 100 | > 100 | > 100 | > 100 | > 100 | > 100 | > 100 | > 100 |  | > 100 | > 100 | > 100 | > 100 | > 100
Nc1ccc(-c2nc3cc(F)ccc3s2)cc1Br | > 100 | 0.528 | > 100 | > 100 | > 100 | > 100 | > 100 | > 65.1 | > 100 | > 73.2 | > 100 | > 100 |  | 77.9 | > 37.2 | > 100 | > 100 | > 100 | > 63.6
CC(C)(C)OC(=O)N1C[C@H](CC(=O)OCc2ccccc2)C[C@H]1C(=O)OCC(Cl)(Cl)Cl | 13.6 | > 50 | > 50 | > 50 | > 50 | 25.9 | > 50 | > 50 | 3.36 | > 50 | > 50 | > 50 | > 50 | > 50 |  | > 50 | > 50 | > 50 | > 50
CCOC(=O)c1c(N2CCOCC2)[nH]c(=O)c(C(c2c(O)c(C(=O)OCC)c(N3CCOCC3)[nH]c2=O)C(C)C)c1O | > 100 | > 100 | > 100 | > 100 | > 100 | > 100 | > 100 | > 100 | > 100 | > 100 | > 100 | > 100 | > 100 | 69.7 |  | > 100 | > 100 | > 100 | > 100
CSc1c(C#N)c(O)n(-c2ccc(Cl)cc2)c(=O)c1C#N | > 100 | > 100 |  | > 100 | > 100 | > 100 | > 100 | > 100 | > 100 | > 100 | > 100 | > 100 | > 100 | > 100 | > 100 | > 100 | > 100 | > 100 | > 100
C[C@@]12C[C@@H](c3ccccc3O1)N1CCSC1=N2 | > 100 | > 100 |  | > 100 | > 100 | > 100 | > 100 | > 100 | > 100 | > 100 | > 100 | > 100 | > 100 | > 100 | > 100 | > 100 | > 100 | > 100 | > 100
O=C(c1ccsc1)c1cc2c(s1)C(=O)c1ccsc1C2=O | 0.323 | 0.383 | > 100 | 0.385 | 0.407 | 2.94 | 0.549 | 0.305 | > 100 | 0.496 |  | 3.09 | 1.25 | 0.311 | 0.403 | 0.933 | 0.385 | 0.354 | 0.373
Nc1sccc1S(=O)(=O)c1ccsc1N | > 100 | > 100 |  |  | > 100 | > 100 | > 100 | > 100 | > 100 | > 100 |  | > 100 | > 100 | > 100 | > 100 | > 100 | > 100 | > 100 | > 100
O=C(O)C(F)(OC(F)(F)C(F)(F)C(F)(F)F)C(F)(F)F (stereo not drawn) | > 100 | > 100 |  | > 100 | > 100 | > 100 | > 100 | > 100 | > 100 | > 100 | > 100 | > 100 | > 100 | > 100 | > 100 | > 100 | > 100 | > 100 | > 100
